Results published in patent publication US11312712B2, “Azabenzimidazoles and their use as AMPA receptor modulators” (Janssen Pharmaceutica NV, priority 2015, dated 2022).

Molecular target: GluA1o-γ8 (GRIA1o-CACNG8 fusion construct) (Homo sapiens (Human), UniProt P42261+Q8WXS5)
Test: Calcium flux assay (FLIPR), inhibition of TARP γ8 dependent AMPA receptor activity
Type: cell-based
Details: GluA1o-γ8 (GRIA1o-CACNG8 fusion) in HEK293 cells, calcium flux after 15 μM glutamate
Summary of the method: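 HEK293 cells stably expressing a 1:1 GRIA1o–CACNG8 fusion were loaded with Calcium-5/6 dye plus compound in pH 7.4 HEPES-buffered saline. FLIPR calcium flux after 15 μM glutamate was normalized to untreated and 10 μM CP465022 controls, and a four-parameter logistic fit gave pIC50.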

Sequence of GluA1o-γ8 (GRIA1o-CACNG8 fusion construct) (P42261 other isoform, or with tags, fused parts or gaps): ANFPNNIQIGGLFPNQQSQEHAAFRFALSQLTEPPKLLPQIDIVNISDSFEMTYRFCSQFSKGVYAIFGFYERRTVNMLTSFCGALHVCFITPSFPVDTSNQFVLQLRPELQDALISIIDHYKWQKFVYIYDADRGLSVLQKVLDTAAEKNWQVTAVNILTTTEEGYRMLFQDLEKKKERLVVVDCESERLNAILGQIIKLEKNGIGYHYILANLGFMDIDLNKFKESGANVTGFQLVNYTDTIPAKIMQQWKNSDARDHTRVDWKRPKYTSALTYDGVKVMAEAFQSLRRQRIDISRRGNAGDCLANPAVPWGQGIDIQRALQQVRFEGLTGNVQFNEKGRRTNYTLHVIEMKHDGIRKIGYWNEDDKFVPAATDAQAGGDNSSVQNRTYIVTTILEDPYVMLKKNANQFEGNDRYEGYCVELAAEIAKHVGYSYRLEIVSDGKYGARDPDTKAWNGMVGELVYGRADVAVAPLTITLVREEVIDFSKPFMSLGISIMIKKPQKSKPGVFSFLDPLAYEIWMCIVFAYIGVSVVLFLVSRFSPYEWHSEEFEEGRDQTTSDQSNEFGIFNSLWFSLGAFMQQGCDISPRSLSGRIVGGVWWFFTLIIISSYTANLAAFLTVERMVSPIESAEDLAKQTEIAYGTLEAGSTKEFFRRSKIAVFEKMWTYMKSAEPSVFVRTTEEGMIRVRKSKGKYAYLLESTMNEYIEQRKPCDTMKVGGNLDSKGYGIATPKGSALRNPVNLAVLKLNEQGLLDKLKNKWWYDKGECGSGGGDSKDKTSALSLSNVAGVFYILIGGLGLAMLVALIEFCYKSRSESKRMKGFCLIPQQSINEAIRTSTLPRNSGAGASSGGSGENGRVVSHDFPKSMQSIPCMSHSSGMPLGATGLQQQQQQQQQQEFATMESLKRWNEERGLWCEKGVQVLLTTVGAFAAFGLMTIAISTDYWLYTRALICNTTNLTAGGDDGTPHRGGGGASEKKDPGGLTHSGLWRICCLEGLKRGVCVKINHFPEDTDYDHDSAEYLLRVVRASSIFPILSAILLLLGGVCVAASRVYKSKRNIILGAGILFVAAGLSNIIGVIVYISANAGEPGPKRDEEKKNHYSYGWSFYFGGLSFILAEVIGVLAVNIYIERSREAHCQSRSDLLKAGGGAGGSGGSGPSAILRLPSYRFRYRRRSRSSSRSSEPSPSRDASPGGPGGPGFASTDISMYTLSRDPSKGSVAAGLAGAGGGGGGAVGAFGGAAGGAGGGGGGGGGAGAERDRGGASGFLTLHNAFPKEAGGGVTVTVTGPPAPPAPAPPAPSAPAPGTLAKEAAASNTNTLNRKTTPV

IC50 [nM] | Structure (SMILES)
0.00794 | Cc1cc(-n2c(C(C)C)cc3ccc(C(F)(F)F)nc32)cc2cn[nH]c12 [Example 370, 2-Isopropyl-1-(7-methyl-1H-indazol-5-yl)-6-(trifluoromethyl)pyrrolo[2,3-b]pyridine]
0.0398 | Cc1cc(-n2c(CCCF)cc3ccc(C(F)(F)F)nc32)cc2cn[nH]c12 [Example 371, 2-(3-Fluoropropyl)-1-(7-methyl-1H-indazol-5-yl)-6-(trifluoromethyl)pyrrolo[2,3-b]pyridine]
0.0316 | FCCCc1cc2ccc(C(F)(F)F)nc2n1-c1cc(Cl)c2[nH]ncc2c1 [Example 372, 1-(7-Chloro-1H-indazol-5-yl)-2-(3-fluoropropyl)-6-(trifluoromethyl)pyrrolo[2,3-b]pyridine]
0.0501 | Cc1cc(-n2c(C)cc3ccc(C(F)(F)F)nc32)cc2cn[nH]c12 [Example 373, 2-Methyl-1-(7-methyl-1H-indazol-5-yl)-6-(trifluoromethyl)pyrrolo[2,3-b]pyridine]
0.0126 | Cc1cc2ccc(C(F)(F)F)nc2n1-c1cc(Cl)c2[nH]ncc2c1 [Example 374, 1-(7-Chloro-1H-indazol-5-yl)-2-methyl-6-(trifluoromethyl)pyrrolo[2,3-b]pyridine]
10 | Cc1cc(-n2c(C)cc3cccnc32)cc2cn[nH]c12 [Example 375, 2-Methyl-1-(7-methyl-1H-indazol-5-yl)pyrrolo[2,3-b]pyridine]
0.0501 | CC(C)c1cc2ccc(C(F)(F)F)nc2n1-c1cnc2[nH]ncc2c1 [Example 376, 5-[2-Isopropyl-6-(trifluoromethyl)pyrrolo[2,3-b]pyridin-1-yl]-1H-pyrazolo[3,4-b]pyridine]
2 | Cc1cc(-n2ccc3ccc(C(F)(F)F)nc32)cc2cn[nH]c12 [Example 377, 1-(7-Methyl-1H-indazol-5-yl)-6-(trifluoromethyl)pyrrolo[2,3-b]pyridine]
100 | Cc1ccc2ccn(-c3cc(C)c4c(c3)CC(=O)N4)c2n1 [Example 378, 7-Methyl-5-(6-methylpyrrolo[2,3-b]pyridin-1-yl)indolin-2-one]
100 | Cc1ccc2ccn(-c3cc(F)c4c(c3)CC(=O)N4)c2n1 [Example 379, 7-Fluoro-5-(6-methylpyrrolo[2,3-b]pyridin-1-yl)indolin-2-one]
1 | Cc1ccc2cc(C3CC3)n(-c3ccc4c(c3)CC(=O)N4)c2n1 [Example 380, 5-(2-Cyclopropyl-6-methyl-pyrrolo[2,3-b]pyridin-1-yl)indolin-2-one]
5.01 | Cc1ccc2cc(-c3ccc(F)cc3)n(-c3ccc4[nH]ccc4c3)c2n1 [Example 381, 2-(4-Fluorophenyl)-1-(1H-indol-5-yl)-6-methyl-pyrrolo[2,3-b]pyridine]
0.398 | Cc1ccc2cc(-c3ccc(F)cc3)n(-c3ccc4c(c3)CC(=O)N4)c2n1 [Example 382, 5-[2-(4-Fluorophenyl)-6-methyl-pyrrolo[2,3-b]pyridin-1-yl]indolin-2-one]
0.1 | O=C1Cc2cc(-n3c(-c4ccc(F)cc4)cc4ccc(Cl)nc43)ccc2N1 [Example 383, 5-[6-Chloro-2-(4-fluorophenyl)pyrrolo[2,3-b]pyridin-1-yl]indolin-2-one]
5.01 | COc1ccc2cc(-c3ccc(F)cc3)n(-c3ccc4c(c3)CC(=O)N4)c2n1 [Example 384, 5-[2-(4-Fluorophenyl)-6-methoxy-pyrrolo[2,3-b]pyridin-1-yl]indolin-2-one]
15.8 | Fc1ccc(-c2cc3ccc(Cl)nc3n2-c2ccc3[nH]ccc3c2)cc1 [Example 385, 6-Chloro-2-(4-fluorophenyl)-1-(1H-indol-5-yl)pyrrolo[2,3-b]pyridine]
6.31 | Fc1ccc(-c2cc3ccc(C(F)(F)F)nc3n2-c2ccc3[nH]ccc3c2)cc1 [Example 387, 2-(4-Fluorophenyl)-1-(1H-indol-5-yl)-6-(trifluoromethyl)pyrrolo[2,3-b]pyridine]

Structure (SMILES) | IC50 [nM]
CC(C)(C)Oc1ccc2cc(-c3ccc(F)cc3)n(-c3ccc4[nH]ccc4c3)c2n1 [Example 386, 6-tert-Butoxy-2-(4-fluorophenyl)-1-(1H-indol-5-yl)pyrrolo[2,3-b]pyridine] | 1580
